The source of these data is patent US20060166866A1, “Cell adhesion inhibitors” (Biogen, Inc., a Massachusetts corporation, priority 1995, published 2006).

Bounds are passed on as bounds.

As usually defined, the IC50 is the point on the concentration scale where inhibition reaches its midpoint. A low value points to inhibition by little substance.

This experiment deals with T1, VLA4 (Homo sapiens, UniProt P05556+P13612).
T1 construct: endogenous in cells; host or cells: Ramos cells
T1 sequence (P13612 34-1032): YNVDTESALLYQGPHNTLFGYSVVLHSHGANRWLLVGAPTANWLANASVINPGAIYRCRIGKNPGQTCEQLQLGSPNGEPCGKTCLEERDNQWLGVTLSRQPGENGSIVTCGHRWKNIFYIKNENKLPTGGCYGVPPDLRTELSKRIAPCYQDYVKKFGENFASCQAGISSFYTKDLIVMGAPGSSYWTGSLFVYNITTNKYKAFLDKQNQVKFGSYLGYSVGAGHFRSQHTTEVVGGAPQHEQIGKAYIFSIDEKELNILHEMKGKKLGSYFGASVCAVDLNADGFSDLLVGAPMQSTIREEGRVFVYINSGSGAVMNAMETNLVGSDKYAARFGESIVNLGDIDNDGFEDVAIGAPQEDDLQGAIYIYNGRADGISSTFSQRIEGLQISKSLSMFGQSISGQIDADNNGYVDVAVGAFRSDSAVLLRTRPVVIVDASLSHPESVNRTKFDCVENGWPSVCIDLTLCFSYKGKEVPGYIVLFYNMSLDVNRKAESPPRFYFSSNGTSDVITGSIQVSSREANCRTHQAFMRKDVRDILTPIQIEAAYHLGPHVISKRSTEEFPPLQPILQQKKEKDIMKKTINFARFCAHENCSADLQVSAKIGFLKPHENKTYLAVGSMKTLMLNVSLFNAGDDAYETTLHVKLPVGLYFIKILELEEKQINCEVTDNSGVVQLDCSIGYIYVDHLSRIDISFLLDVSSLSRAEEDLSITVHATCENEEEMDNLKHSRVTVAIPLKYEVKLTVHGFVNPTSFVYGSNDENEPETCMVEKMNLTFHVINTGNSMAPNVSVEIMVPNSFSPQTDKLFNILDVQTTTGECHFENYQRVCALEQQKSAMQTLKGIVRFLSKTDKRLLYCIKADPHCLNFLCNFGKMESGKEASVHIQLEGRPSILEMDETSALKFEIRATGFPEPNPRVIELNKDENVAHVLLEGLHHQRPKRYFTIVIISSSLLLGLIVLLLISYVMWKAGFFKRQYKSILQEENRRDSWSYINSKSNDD
T1 sequence (P05556 21-798): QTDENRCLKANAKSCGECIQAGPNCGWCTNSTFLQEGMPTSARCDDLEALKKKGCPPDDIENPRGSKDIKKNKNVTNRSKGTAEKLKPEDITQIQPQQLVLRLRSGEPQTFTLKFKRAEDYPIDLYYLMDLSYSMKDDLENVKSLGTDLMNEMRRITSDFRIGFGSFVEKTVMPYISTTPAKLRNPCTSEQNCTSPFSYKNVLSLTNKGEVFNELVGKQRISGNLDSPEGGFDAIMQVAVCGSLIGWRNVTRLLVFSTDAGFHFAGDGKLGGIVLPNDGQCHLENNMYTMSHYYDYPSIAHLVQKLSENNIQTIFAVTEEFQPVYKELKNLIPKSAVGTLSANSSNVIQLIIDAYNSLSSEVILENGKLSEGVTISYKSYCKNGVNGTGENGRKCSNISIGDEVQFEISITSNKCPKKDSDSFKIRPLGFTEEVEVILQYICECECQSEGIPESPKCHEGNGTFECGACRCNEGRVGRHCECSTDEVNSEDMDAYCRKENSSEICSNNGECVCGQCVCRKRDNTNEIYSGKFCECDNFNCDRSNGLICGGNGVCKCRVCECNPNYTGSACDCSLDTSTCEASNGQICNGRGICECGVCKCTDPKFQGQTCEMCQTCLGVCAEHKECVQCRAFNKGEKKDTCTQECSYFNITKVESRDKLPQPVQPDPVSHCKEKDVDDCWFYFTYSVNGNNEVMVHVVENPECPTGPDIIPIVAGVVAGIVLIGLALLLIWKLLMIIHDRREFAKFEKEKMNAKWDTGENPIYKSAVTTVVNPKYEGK
The experiment is described as follows: Inhibition of VLA4-dependent adhesion to BSA-CS1 (fluorescently labelled Ramos cells). The class given is cell-based. The settings on record: binding of BCECF-labelled Ramos cells to CS1 peptide-coated wells, 2 mM MnCl2, 30 minutes at room temperature. The source says:
For example, the cell adhesion inhibitory activity of these compounds may be measured by determining the concentration of inhibitor required to block the binding of VLA-4-expressing cells to fibronectin- or CS1-coated plates. In this assay microtiter wells are coated with either fibronectin (containing the CS-1 sequence) or CS-1. If CS-1 is used, it must be conjugated to a carrier protein, such as bovine serum albumin, in order to bind to the wells. Once the wells are coated, varying concentrations of the test compound are then added together with appropriately labelled, VLA-4-expressing cells. Alternatively, the test compound may be added first and allowed to incubate with the coated wells prior to the addition of the cells. The cells are allowed to incubate in the wells format least 30 minutes. Following incubation, the wells are emptied and washed. Inhibition of binding is measured by quantitating the fluorescence or radioactivity bound to the plate for each of the various concentrations of test compound, as well as for controls containing no test compound.
VLA-4-expressing cells that may be utilized in this assay include Ramos cells, Jurkat cells, A375 melanoma cells, as well as human peripheral blood lymophocytes (PBLs). The cells used in this assay may be fluorescently or radioactively labelled.
This assay was used to assess the potency of VLA4-directed inhibitory compounds of this invention.
1. Conjugation of CS1 to BSA
We dissolved BSA-SMCC (Pierce Chemical, Rockford, Ill.; Catalog,# 77115) in H2O at a concentration of 10 mg/mL. [SEQ ID NO:4]:Cys-Tyr-Asp-Glu-Leu-Pro-Gln-Leu-Val-Thr-Leu-Pro-His-Pro-Asn-Leu-His-GIy-Pro-Glu-Ile-Leu-Asp-Val-Pro-Ser-Thr (“Cys-Tyr-CS1 peptide”), which we synthesized by conventional solid phase chemistry and purified by HPLC, was dissolved in 10 mM HEPES pH 5, 50 mM NaCl and 0.1 mM EDTA also at a concentration of 10 mg/mL. We then mixed 500 μL of BSA-SMCC, 250 μL of Cys-Tyr-CS1 peptide and 75 μL of […] and allowed the conjugation reaction to proceed for 30 minutes. We stopped the reaction by adding 1 μL of beta-mercaptoethanol. Samples were analyzed for cross-linking by SDS-PAGE. This reaction produced multiple molecules of the Cys-Tyr-CS1 peptide conjugate to each BSA molecule.
2. Preparation of Plates for Adhesion Assay
We coated the wells of a Linbro titertek polystyrene 96-well flat bottom plate (Flow Laboratories, Maclean, Va.; catalog #76-231-05) with 100 μL of the above-described BSA-CS1 solution diluted to 1 μg/mL in 0.05 M NaHCO3 (15 mM NaHCO3, 35 mM Na2CO3) pH 9.2. Some wells were not coated with CS1 in order to assess non-specific cell binding (NSB). The plate was then incubated overnight at 4° C.
Following this incubation, the contents of the wells were removed by inverting and blotting the plate. All of the wells were then blocked with 100 μL of 1% BSA in PBS, 0.02% NaN3, for a minimum of one hour at room temperature.
3. Preparation of Fluorescently Labelled Ramos Cells
Ramos cells are grown, maintained and labelled in RPMI 1640 culture medium containing 1% BSA. Just prior to running the assay, we added 2′,7′-bis-(2-carboxyethyl)-5 (and -6) carboxyfluorescein acetoxymethyl ester (“BCECF-AM”; Molecular Probes Inc., Eugene, Oreg.; catalog #B-1150) to a final concnetration of 2 μM to a culture of Ramos cells (4×10^6 cells/mL). We incubated the cells for 20 minutes at 37° C.
Following labelling, the cells were washed twice in assay buffer (24 mM TRIS, 137 mM NaCl, 2.7 mM KCl, pH 7.4, containing 0.1% BSA and 2 mM glucose) to remove any cations originating from the culture medium. The cells were then resuspended in assay buffer to 4×10^6 cells/mL and 2 mM MnCl2 was added to upregulate VLA4 on the surface of the cells.
Immediately prior to running the assay, we removed the BSA blocking solution from the 96-well plates and washed the wells with 100 μL of assay buffer. We then added to each well 25 μL of test compound at 2× the final concentration and 25 μL of the labelled Ramos cells. […]
Turning to `CC(C)CC(NC(=O)Cc1ccc(NC(=S)Nc2ccccc2)cc1)C(=O)NC(CC(=O)O)c1ccc2c(c1)OCO2` (stereo not shown) [BIO-1358], the IC50 lay in the range of 50 to 10000 nM.
As to `CC(C)CC(NC(=O)Cc1ccc(NC(=O)Nc2ccccc2)cc1)C(=O)NC(CC(=O)O)c1ccc2c(c1)OCO2` (stereo not shown) [BIO-1128], the IC50 is 50 to 10000 nM.
In turn, `CC(C)CC(NC(=O)CC(c1ccccc1)c1ccccc1)C(=O)NC(CC(=O)O)c1ccccc1` (stereo not shown) [BIO-1099] yielded an IC50 above 10000 nM.
Under `O=C(O)CC(NC(=O)C(CSCc1ccccc1)NC(=O)Cc1ccc(NC(=O)Nc2ccccc2)cc1)c1ccccc1` (stereo not shown) [BIO-1136] stands 50 to 10000 nM; under `CC(C)CC(NC(=O)Cc1ccc(NC(=O)Nc2ccccc2)cc1)C(=O)NC(CC(=O)O)c1ccc(F)c(F)c1` (stereo not shown) [BIO-1195], below 50 nM; under `Cc1ccccc1NC(=O)Nc1ccc(CC(=O)NC(CC(C)C)C(=O)NC(CC(=O)O)CN2CCOCC2)cc1` (stereo not shown) [BIO-1721], 50 to 10000 nM.
Under `CC(C)CC(NC(=O)Cc1ccc(Nc2nc3ccccc3o2)cc1)C(=O)NC(CC(=O)O)c1ccc2c(c1)OCO2` (stereo not shown) [BIO-1396] stands 50 to 10000 nM; under `Cc1ccccc1NC(=O)Nc1ccc(CC(=O)NC(CSCCN(C)C)C(=O)NC(CC(=O)O)c2ccc3c(c2)OCO3)cc1` (stereo not shown) [BIO-1345], below 50 nM.
The same measure for `Cc1ccccc1NC(=O)Nc1ccc(CC(=O)NC(CSCCCO)C(=O)NC(CC(=O)O)c2ccc3c(c2)OCO3)cc1` (stereo not shown) [BIO-1246]: below 50 nM; for `CC(C)CC(NC(=O)Cc1ccc(NC(=O)c2cc3ccccc3[nH]2)cc1)C(=O)NCCC(=O)O` (stereo not shown) [BIO-1648]: 50 to 10000 nM.
With `CC(C)CNC(=O)C(CC(=O)O)NC(=O)C(CC(C)C)NC(=O)Cc1ccc(NC(=O)Nc2ccccc2)cc1` (stereo not shown) [BIO-1186], the IC50 lay within 50 to 10000 nM.
`COc1ccc(C(CC(=O)O)NC(=O)C(CC(C)C)NC(=O)Cc2ccc(NC(=O)Nc3ccc(F)cc3)cc2)cc1OC` (stereo not shown) [BIO-1526] yielded an IC50 of 50 to 10000 nM.
Consider `Cc1ccccc1NC(=O)Nc1ccc(CC(=O)NC(CC(C)C)C(=O)NCCC(=O)O)cc1` (stereo not shown) [BIO-1594], for which the IC50 fell in the range of 50 to 10000 nM.
The same measure for `C=CCC(CC(=O)O)NC(=O)C(CC(C)C)NC(=O)Cc1ccc(NC(=O)Nc2ccccc2C)cc1` (stereo not shown) [BIO-1515]: below 50 nM.
In the case of `Cc1ccccc1NC(=O)Nc1ccc(CC(=O)NC(CC(C)C)C(=O)NC(CC(=O)O)c2ccc3c(c2)CCO3)cc1` (stereo not shown) [BIO-1360], the IC50 was below 50 nM.
Under `CC(C)CC(NC(=O)Nc1ccc([N+](=O)[O-])cc1)C(=O)NC(CC(=O)O)c1ccccc1` (stereo not shown) [BIO-1108] stands above 10000 nM; under `COC(=O)c1ccc(C(CC(=O)O)NC(=O)C(CCSC)NC(=O)Cc2ccc(NC(=O)Nc3ccccc3C)cc2)cc1` (stereo not shown) [BIO-1361], below 50 nM; under `Cc1ccc(NC(=O)Nc2ccc(CC(=O)NC(CC(C)C)C(=O)NC(CC(=O)O)c3ccc4c(c3)OCO4)cc2)cc1` (stereo not shown) [BIO-1067], 50 to 10000 nM.
Under `COC(=O)c1ccc(C(CC(=O)O)NC(=O)C(CC(C)C)NC(=O)Cc2ccc(NC(=O)Nc3ccccc3)cc2)cc1` (stereo not shown) [BIO-1388] stands below 50 nM; under `CSCCC(NC(=O)Cc1ccc(NC(=O)Nc2ncccc2C)cc1)C(=O)NC(CC(=O)O)c1ccc2c(c1)OCO2` (stereo not shown) [BIO-1429], 50 to 10000 nM.
The same measure for `Cc1ccccc1NC(=O)Nc1ccc(CC(=O)NC(CC(C)C)C(=O)NC(CCc2ccccc2)CC(=O)O)cc1` (stereo not shown) [BIO-1400]: below 50 nM; for `COC(=O)NCCCCC(NC(=O)Cc1ccc(NC(=O)Nc2ncccc2C)cc1)C(=O)NC(CC(=O)O)c1ccc(OC)c(OC)c1` (stereo not shown) [BIO-1311]: 50 to 10000 nM.
For `Cc1ccccc1NC(=O)Nc1ccc(CC(=O)NC(CC(C)C)C(=O)NC(C)CC(=O)O)cc1` (stereo not shown) [BIO-1536], the IC50 was below 50 nM.
In the case of `CC(C)CC(NC(=O)Cc1ccc(NC(=O)c2ccc[nH]2)cc1)C(=O)NC(CC(=O)O)c1ccc2c(c1)OCO2` (stereo not shown) [BIO-1474], the IC50 was 50 to 10000 nM.
The same measure for `COc1ccc(C(CC(=O)O)NC(=O)C(CC(C)C)NC(=O)Cc2ccc(NC(=O)Nc3ccccn3)cc2)cc1` (stereo not shown) [BIO-1194]: below 50 nM; for `COc1ccc(C(CC(=O)O)NC(=O)C(CC(C)C)NC(=O)Cc2ccc(NC(=O)Nc3ccccc3F)cc2)cc1OC` (stereo not shown) [BIO-1525]: 50 to 10000 nM.
`CSCCC(NC(=O)Cc1ccc(NC(=O)Nc2ccccn2)cc1)C(=O)NC(CC(=O)O)c1ccc2c(c1)OCO2` (stereo not shown) [BIO-1393]: the half-maximal inhibitory concentration (IC50) is below 50 nM.
Regarding `C=CCNC(=O)Nc1ccc(CC(=O)NC(CC(C)C)C(=O)NC(CC(=O)O)c2ccc3c(c2)OCO3)cc1` (stereo not shown) [BIO-1475], the IC50 is 50 to 10000 nM.
Under `CC(C)CC(NC(=O)Cc1ccc(NC(=O)n2ccc3ccccc32)cc1)C(=O)NC(CC(=O)O)c1ccc2c(c1)OCO2` (stereo not shown) [BIO-1327] stands 50 to 10000 nM; under `COc1cccc(C(CC(=O)O)NC(=O)C(CC(C)C)NC(=O)Cc2ccccc2)c1` (stereo not shown) [BIO-1160], 50 to 10000 nM.
`COc1ccc(C(CC(=O)O)NC(=O)C(CCSC)NC(=O)Cc2ccc(NC(=O)Nc3ccccn3)cc2)cc1OC` (stereo not shown) [BIO-1347] returned an IC50 below 50 nM.
The compound `CC(C)CC(NC(=O)Cc1ccc(NC(=O)NC(C)(C)C)cc1)C(=O)NC(CC(=O)O)c1ccc2c(c1)OCO2` (stereo not shown) [BIO-1076] yielded an IC50 of 50 to 10000 nM.
Consider `Cc1ccccc1NC(=O)Nc1ccc(CC(=O)NC(CC(C)C)C(=O)NC(CC(=O)O)c2ccccc2)cc1` (stereo not shown) [BIO-1197], for which the IC50 is below 50 nM.
For the compound `COC(=O)NCCCCC(NC(=O)Cc1ccc(NC(=O)Nc2ccccc2C)cc1)C(=O)NC(CC(=O)O)c1ccc2c(c1)OCO2` (stereo not shown) [BIO-1272], the IC50 is below 50 nM.
Under `CC(C)CC(NC(=O)Cc1ccc(NC(=O)c2c[nH]c3ccccc23)cc1)C(=O)NC(CC(=O)O)c1ccc2c(c1)OCO2` (stereo not shown) [BIO-1655] stands 50 to 10000 nM.
Under `COc1ccc(C(CC(=O)O)NC(=O)C(CC(C)C)NC(=O)Cc2ccc(NC(=O)Nc3ccccc3C)cc2)cc1OC` (stereo not shown) [BIO-1212] stands below 50 nM.
The same measure for `C#CC(CC(=O)O)NC(=O)C(CC(C)C)NC(=O)Cc1ccc(NC(=O)Nc2ccccc2C)cc1` (stereo not shown) [BIO-1490]: below 50 nM.
